Test results: ChEMBL document CHEMBL1149509, “Search of antitubercular activities in tetrahydroacridines: synthesis and biological evaluation” (Bioorg Med Chem Lett, 2006)
≈ marks a conversion by molar mass, not a printed value.

Key:
[1] = tested on: Mycobacterium tuberculosis; assay: Antitubercular activity against Mycobacterium tuberculosis H37Ra; type: functional
[2] = Partition coefficient, log P of the compound; type: physicochemical; conditions: octanol/water
[3] = tested on: Mycobacterium tuberculosis; assay: Antitubercular activity against Mycobacterium tuberculosis H37Rv; type: functional

Clc1ccc(Oc2c3c(nc4ccccc24)CCCC3)cc1
MIC [1]: > 25 µg/mL
logP ([2]; read-out: LogP): 5.81
MIC [3]: > 12.5 µg/mL

CO[C@H]1/C=C/O[C@@]2(C)Oc3c(C)c(O)c4c(O)c(c(/C=N/N5CCN(C)CC5)c(O)c4c3C2=O)NC(=O)/C(C)=C\C=C\[C@H](C)[C@H](O)[C@@H](C)[C@@H](O)[C@@H](C)[C@H](OC(C)=O)[C@@H]1C [RIFAMPIN]
MIC [3]: 0.75 µg/mL (≈ 0.911 µM)

c1ccc2c(NCCCCCNc3c4c(nc5ccccc35)CCCC4)c3c(nc2c1)CCCC3
MIC [1]: 25 µg/mL (≈ 53.8 µM)
logP ([2]; read-out: LogP): 7.15
MIC [3]: 12.5 µg/mL (≈ 26.9 µM)

c1ccc(Sc2c3c(nc4ccccc24)CCCC3)cc1
MIC [1]: > 25 µg/mL
logP ([2]; read-out: LogP): 5.82
MIC [3]: > 12.5 µg/mL

Clc1ccc(Oc2c3c(nc4ccccc24)CCCC3)c(Cl)c1
MIC [1]: > 25 µg/mL
logP ([2]; read-out: LogP): 6.37
MIC [3]: > 12.5 µg/mL

Fc1ccc(Oc2c3c(nc4ccccc24)CCCC3)cc1
MIC [1]: > 25 µg/mL
logP ([2]; read-out: LogP): 5.41
MIC [3]: > 12.5 µg/mL

CCCCCCCCCCCCNc1c2c(nc3ccccc13)CCCC2
MIC [1]: 6.25 µg/mL (≈ 17 µM)
logP ([2]; read-out: LogP): 7.79
MIC [3]: 0.78 µg/mL (≈ 2.13 µM)

c1ccc2c(NCCCCCCCCCCNc3c4c(nc5ccccc35)CCCC4)c3c(nc2c1)CCCC3
MIC [1]: 3.12 µg/mL (≈ 5.83 µM)
logP [2]: 9.24
MIC [3]: 12.5 µg/mL (≈ 23.4 µM)

c1ccc2c(N3CCOCC3)c3c(cc2c1)CCCC3
MIC [1]: > 25 µg/mL
logP ([2]; read-out: LogP): 3.6
MIC [3]: 12.5 µg/mL (≈ 46.8 µM)

COc1ccc(Nc2c3c(nc4ccccc24)CCCC3)cc1
MIC [1]: > 25 µg/mL
logP ([2]; read-out: LogP): 5.05
MIC [3]: > 12.5 µg/mL

c1ccc(CNc2c3c(nc4ccccc24)CCCC3)cc1
MIC [1]: 25 µg/mL (≈ 86.7 µM)
logP ([2]; read-out: LogP): 4.94
MIC [3]: > 12.5 µg/mL

NNC(=O)c1ccncc1 [ISONIAZID]
MIC [3]: 0.65 µg/mL (≈ 4.74 µM)

Clc1cccc(CCNc2c3c(nc4ccccc24)CCCC3)c1
MIC [1]: 25 µg/mL (≈ 74.2 µM)
logP ([2]; read-out: LogP): 5.78
MIC [3]: > 12.5 µg/mL

Cc1ccc(Oc2c3c(nc4ccccc24)CCCC3)cc1C
MIC [1]: > 25 µg/mL
logP ([2]; read-out: LogP): 6.23
MIC [3]: > 12.5 µg/mL

CCCCCCCCNc1c2c(nc3ccccc13)CCCC2
MIC [1]: 1.56 µg/mL (≈ 5.02 µM)
logP ([2]; read-out: LogP): 6.12
MIC [3]: 3.12 µg/mL (≈ 10 µM)

CCCCCCNc1c2c(nc3ccccc13)CCCC2
MIC [1]: 6.25 µg/mL (≈ 22.1 µM)
logP ([2]; read-out: LogP): 5.29
MIC [3]: 6.25 µg/mL (≈ 22.1 µM)

CC[C@@H](CO)NCCN[C@@H](CC)CO [ETHAMBUTOL]
MIC [3]: 3.25 µg/mL (≈ 15.9 µM)

C=CCc1ccc(Oc2c3c(nc4ccccc24)CCCC3)c(OC)c1
MIC [1]: 25 µg/mL (≈ 72.4 µM)
logP ([2]; read-out: LogP): 6.18
MIC [3]: > 12.5 µg/mL

c1ccc2c(NCCCCCCCNc3c4c(nc5ccccc35)CCCC4)c3c(nc2c1)CCCC3
MIC [1]: 6.25 µg/mL (≈ 12.7 µM)
logP ([2]; read-out: LogP): 7.99
MIC [3]: 12.5 µg/mL (≈ 25.4 µM)

OCCNc1c2c(nc3ccccc13)CCCC2
MIC [1]: > 25 µg/mL
logP ([2]; read-out: LogP): 2.69
MIC [3]: 12.5 µg/mL (≈ 51.6 µM)
